According to patent US5591741A, “Fungicidal spiroheterocyclic derivatives” (American Cyanamid Company, priority 1993, dated 1997):

Assays:
Botrytis cinerea = assay: Direct protectant activity against broad bean grey mould (BCB); type: in vivo; conditions: direct protectant foliar spray, 600 ppm, 4 days
Method: (c) Direct protectant activity against broad bean grey mould (Botrytis cinerea; BCB) The test is a direct protectant foliar spray. The upper surfaces of leaves of broad bean plants with two leaf pairs (cv The Sutton) are sprayed with the test compound at a dosage of 600 ppm using an automated sprayline as described under (a). 24 hours after spraying the leaves are inoculated with an aqueous suspension containing 10^6 conidia/ml. For 4 days after inoculation plants are kept in a high humidity compartment at 22° C. Disease is assessed 4 days after inoculation, based on the percentage of leaf surface area covered by lesions. The extent of disease control in all the above tests is expressed as a rating compared with either an untreated control or a diluent-sprayed-control, according to the criteria: […]

Leptosphaeria nodorum = assay: Activity against wheat leafspot (LN); type: in vivo; conditions: direct therapeutic foliar spray, 600 ppm, 6-8 days
Method: (d) Activity against wheat leafspot (Leptosphaeria nodorum; LN.) The test is a direct therapeutic foliar spray. Leaves of wheat plants (cv Norman), at the single leaf stage, are inoculated by spraying with an aqueous suspension containing 1.5×10^6 conidia/ml. The inoculated plants are kept for 24 hours in a high humidity compartment prior to treatment. The plants are sprayed with a solution of the test compound at a dosage of 600 ppm using an automated sprayline as described under (a). After drying, the plants are kept for 6-8 days at 22° C. and moderate humidity (70%). Assessment is based on the density of lesions per leaf compared with that on leaves of control plants. The extent of disease control in all the above tests is expressed as a rating compared with either an untreated control or a diluent-sprayed-control, according to the criteria: […]

Venturia inaequalis = assay: Activity against apple scab in-vitro (VII); type: cell-based; conditions: 10 ppm, 10 days, 20° C., mycelial growth
Method: (j) Activity against apple scab in-vitro (Venturia inaequalis: VII) This test measures the in-vitro activity of compounds against V. inaequalis that causes apple scab. The test compound in acetone is added into 4 ml aliquots of half strength Potato Dextrose Broth dispensed in 25-compartment petri dishes to give final concentrations of 10 ppm. The fungal inoculum consists of mycelial fragments and spores of V. inaequalis grown on malt agar and added to the broth to provide 5×10^4 propagules/ml broth. Petri dishes are incubated at 20° C. for 10 days until the assessment of mycelial growth. The extent of disease control in all the above tests is expressed as a rating compared with either an untreated control or a diluent-sprayed-control, according to the criteria: […]

[1] = system: Erysiphe graminis f.sp. hordei; assay: Direct protectant activity against barley powdery mildew (EGP); type: in vivo; conditions: direct protectant foliar spray, 8 days
Method: (f) Direct protectant activity against barley powdery mildew (Erysiphe graminis f.sp. hordei; EGP) The test is a direct protectant foliar spray. Leaves of barley seedlings (cv Golden Promise) at the single leaf stage are sprayed with the test compound as described under (a). After drying, the plants are kept for 24 hours in a glasshouse at 18° C. and 40% R.H. Then the plants are inoculated by dusting with mildew conidia and kept at 18° C. and 40% R.H. for 8 days. Assessment is based on the percentage of leaf area covered by sporulation compared with that on leaves of control plants. The extent of disease control in all the above tests is expressed as a rating compared with either an untreated control or a diluent-sprayed-control, according to the criteria: […]

Pyricularia oryzae = type: in vivo; conditions: rice seedlings, direct therapeutic foliar spray, 600 ppm, 4-5 days
[2] = system: Pseudocercosporella herpotrichoides; assay: Activity against wheat eyespot in-vitro (PHI); type: cell-based; conditions: 10 ppm, 10 days, 20° C., mycelial growth
Method: (h) Activity against wheat eyespot in-vitro (Pseudocercosporella herpotrichoides; pHI) This test measures the in vitro activity of compounds against the fungus causing wheat eyespot. The test compound is dissolved or suspended in acetone and is added into 4 ml aliquots of half strength Potato Dextrose Broth (PDB) dispended in 25-compartment petri dishes to give a final concentration of 10ppm. The fungal inoculum consists of mycelial fragments of P. herpotrichoides grown in half strength PDB in shaken flasks and added to the broth to provide 5×10^4 fragments/ml broth. Petri dishes are incubated at 20° C. for 10 days until the assessment of mycelial growth. The extent of disease control in all the above tests is expressed as a rating compared with either an untreated control or a diluent-sprayed-control, according to the criteria: […]

[3] = system: Erysiphe graminis f.sp. hordei; assay: Activity against barley powdery mildew, direct therapeutic (EGT); type: in vivo; conditions: direct therapeutic foliar spray, 600 ppm, up to 7 days
Method: (e) Activity against barley powdery mildew (Erysiphe graminis f.sp. hordei; EGT) The test is a direct therapeutic foliar spray. Leaves of barley seedlings, (cv. Golden Promise) at the single leaf stage are inoculated by dusting with mildew conidia one day prior to treatment with the test compound. The inoculated plants are kept overnight at glasshouse ambient temperature (18° C.) and humidity (40%) prior to treatment. The plants are sprayed with the test compound at a dosage of 600 ppm using an automated sprayline as described under (a). After drying, plants are returned to a compartment at 18° C. and 40% humidity for up to 7 days. Assessment is based on the percentage of leaf area covered by sporulation compared with that on leaves of control plants. The extent of disease control in all the above tests is expressed as a rating compared with either an untreated control or a diluent-sprayed-control, according to the criteria: […]

Alternaria solani = assay: Activity against tomato early blight (AS); type: in vivo; conditions: Table VI; tomato seedlings, contact prophylactic foliar spray, 4 days
Method: b) Activity against tomato early blight (Alternaria solani; AS) This test measures the contact prophylactic activity of test compounds applied as a foliar spray. Tomato seedlings (cv Outdoor Girl) are grown to the stage at which the second true leaf is expanded. The plants are treated using an automated sprayline as described under (a). Test compounds are applied as solutions or suspensions in a mixture of acetone and water (50:50 v/v) containing 0.04% surfactant ("TWEEN 20"--Trade Mark). After drying the plants are kept for 24 hours in a glasshouse at 20° C. and 40% R.H., followed by inoculation of the leaf upper surfaces with a suspension of A. solani conidia containing 10^4 spores/ml. For 4 days after inoculation plants are kept moist in a humidity compartment at 21° C. Disease is assessed 4 days after inoculation, based on the percentage of leaf surface area covered by lesions when compared with control plants. The extent of disease control in all the above tests is expressed as a rating compared with either an untreated control or a diluent-sprayed-control, according to the criteria: […]

Rhizoctonia solani = assay: Activity against Rhizoctonia in-vitro (RSI); type: cell-based; conditions: 10 ppm, 10 days, 20° C., mycelial growth
Method: (i) Activity against Rhizoctonia in-vitro (Rhizoctonia solani: RSI) This test measures the in-vitro activity of compounds against R. solani that causes stem and root rots. The test compound in acetone is added into 4 ml aliquots of half strength Potato Dextrose Broth dispensed in 25-compartment petri dishes to give final concentrations of 10 ppm. The fungal inoculum consists of mycelial fragments of R. solani growth in half strength PDB in shaken culture flasks and added to the broth to provide 5×10^4 fragments/ml broth. Petri dishes are incubated at 20° C. for 10 days until the assessment of mycelial growth. The extent of disease control in all the above tests is expressed as a rating compared with either an untreated control or a diluent-sprayed-control, according to the criteria: […]

Phytophthora infestans = type: in vivo; conditions: tomato, direct protectant foliar spray
Plasmopara viticola = assay: Antisporulant activity against vine downy mildew (PVA); type: in vivo; conditions: vine leaves, antisporulant foliar spray, 600 ppm, 750 l/ha
Method: (a) Antisporulant activity against vine downy mildew (Plasmopara viticola; PVA) The test is a direct antisporulant one using a foliar spray. The lower surfaces of leaves of whole vine plants (cv Cabernet Sauvignon), approximately 8 cm high, are inoculated by spraying with an aqueous suspension containing 5×10^4 zoosporangia/ml. The inoculated plants are kept for 24 hours at 21° C. in a high humidity compartment, then 24 hours at glasshouse ambient temperature and humidity. Infected leaves are sprayed on their lower surfaces with a solution of active material in 1:1 water/acetone containing 0.04% "TWEEN 20" (Trade Mark; a polyoxyethylene sorbitan ester surfactant). Plants are treated using an automated sprayline with an atomising nozzle. The concentration of the compound is 600 ppm, and the spray volume is 750 l/ha. After spraying, the plants are returned to normal glasshouse conditions for 96 hours and are then transferred to the high humidity compartment for 24 hours to induce sporulation. Assessment is based on the percentage of the leaf area covered by sporulation compared with that on control leaves. The extent of disease control in all the above tests is expressed as a rating compared with either an untreated control or a diluent-sprayed-control, according to the criteria: […]

Row | SMILES | disease control rating BCB (Botrytis cinerea) | disease control rating LN (Leptosphaeria nodorum) | disease control rating VII (Venturia inaequalis) | disease control rating EGP [1] | disease control rating PO (Pyricularia oryzae) | disease control rating PHI [2] | disease control rating EGT [3] | disease control rating AS (Alternaria solani) | disease control rating RSI (Rhizoctonia solani) | disease control rating PIP (Phytophthora infestans) | disease control rating PVA (Plasmopara viticola)
1 | CCCCCCCCNC1COC2(CCC(C(C)(C)C)CC2)C1 (stereo not shown) [Compound 7] | 1 (about 50-80% disease control) | 0 (less than 50% disease control) | 2 (greater than 80% disease control) | 2 (greater than 80% disease control) | 0 (less than 50% disease control) | 2 (greater than 80% disease control) | 2 (greater than 80% disease control) | 0 (less than 50% disease control) | 2 (greater than 80% disease control) | 0 (less than 50% disease control) | 0 (less than 50% disease control)
2 | CCCCCNC1COC2(CCC(C(C)(C)C)CC2)C1 (stereo not shown) [Compound 8] | 1 (about 50-80% disease control) | 0 (less than 50% disease control) | 1 (about 50-80% disease control) | 2 (greater than 80% disease control) | 0 (less than 50% disease control) | 1 (about 50-80% disease control) | 2 (greater than 80% disease control) | 0 (less than 50% disease control) | 0 (less than 50% disease control) | 0 (less than 50% disease control) | 0 (less than 50% disease control)
3 | CC(C)(C)C1CCC2(CC1)CC(N1CCCC1)CO2 (stereo not shown) [Compound 9] | 0 (less than 50% disease control) | 1 (about 50-80% disease control) | 1 (about 50-80% disease control) | 2 (greater than 80% disease control) | 0 (less than 50% disease control) | 1 (about 50-80% disease control) | 2 (greater than 80% disease control) | 0 (less than 50% disease control) | 0 (less than 50% disease control) | 0 (less than 50% disease control) | 0 (less than 50% disease control)
4 | CC(C)(C)C1CCC2(CC1)CC(N1CCCCC1)CO2 (stereo not shown) [Compound 10] | 2 (greater than 80% disease control) | 1 (about 50-80% disease control) | 1 (about 50-80% disease control) | 2 (greater than 80% disease control) | 0 (less than 50% disease control) | 1 (about 50-80% disease control) | 2 (greater than 80% disease control) | 0 (less than 50% disease control) | 0 (less than 50% disease control) | 0 (less than 50% disease control) | 0 (less than 50% disease control)
5 | CC(C)(C)C1CCC2(CC1)CC(N1CCOCC1)CO2 (stereo not shown) [Compound 11] | 0 (less than 50% disease control) | 0 (less than 50% disease control) | 1 (about 50-80% disease control) | 2 (greater than 80% disease control) | 0 (less than 50% disease control) | 1 (about 50-80% disease control) | 0 (less than 50% disease control) | 0 (less than 50% disease control) | 0 (less than 50% disease control) | 0 (less than 50% disease control) | 0 (less than 50% disease control)
